Experimental data: article PMC9560598 (PLoS Pathogens, 2022)
“And” between values parts separate entries of the source, which are not always exact repeats. Equal values may be shown once. Read-outs that look alike come from different tables or passages of the source. Bridge positions count the residues as written; N and C are the ends. Ends that are not written are not given here. Peptide text beside a SMILES is read from it.

Columns and labels:
[1] = system: encapsulated WT B. anthracis Ames bacilli; details: for killing: encapsulated WT Ames bacilli, 2 h
[2] = system: non-encapsulated Sterne strain of B. anthracis; details: cited from earlier work
[3] = format: binding, Bacillus anthracis; details: n = 3
[4] = system: encapsulated killed WT B. anthracis bacilli; format: cell-based, Bacillus anthracis
[5] = system: encapsulated WT B. anthracis Ames bacilli; format: cell-based, Bacillus anthracis

## Polymyxin B
[1]
  Concentrations at which bactericidal activity (significant killing) was observed: 1 to 100 µg/mL

## Nisin
[1]
  Concentrations at which bactericidal activity (significant killing) was observed: 0.1 to 100 µg/mL

## GIGDPVTCLKSGAICHPVFCPRRYKQIGTCGLPGTKCCKKP (disulfide 8-37, 15-30, 20-38 (inferred)) [HBD-2]
[2]
  Bactericidal activity against the Sterne strain: modest bactericidal activity
  Killing of the non-encapsulated Sterne strain: could not
[1]
  % of 0 μg/ml Control, Mean: 34.5% and 26.0%
[1]; 20 μg/ml
  killing: 65%
[3]
  Binding to purified capsule (shift in electrophoretic mobility towards the cathode): bound to capsule

## GIINTLQKYYCRVRGGRCAVLSCLPKEEQIGKCSTRGRKCCRRKK (disulfide 11-40, 18-33, 23-41 (inferred)) [HBD-3]
[2]
  Killing of the non-encapsulated Sterne strain: could kill
[1]
  Concentrations at which bactericidal activity (significant killing) was observed: 0.2 to 20 µg/mL
[1]; 0.2 μg/ml
  killing: 58%
[1]; 20 μg/ml
  killing: 71%
[4]
  % reduction of MFI: 29.6639% and 31.2268% and 35.1463% and 34.7672%
  % reduction of MFI, avg: 32.7011%
  mean fluorescence intensity (MFI): 706.28 and 766.2 and 635.97 and 635.34 and 496.77 and 526.94 and 412.45 and 414.45
  mean fluorescence intensity (MFI), avg: 685.947 and 462.653
[5]
  Localisation of HBD-3 on bacilli: only on the outer surface of the capsule
[3]
  Binding to purified capsule (shift in electrophoretic mobility towards the cathode): bound to capsule

## CC[C@H](C)[C@@H]1NC(=O)[C@H](CCCCN)NC(=O)[C@H]([C@@H](C)O)NC(=O)[C@H](Cc2ccccc2)NC(=O)[C@H]([C@@H](C)CC)NC(=O)[C@@H]2CCCN2C(=O)[C@@H]2CSSC[C@@H](C(=O)N[C@@H](CCCCN)C(=O)O)NC(=O)[C@@H]3CSSC[C@H](NC(=O)[C@H](CC(N)=O)NC(=O)[C@H](Cc4ccc(O)cc4)NC(=O)[C@H](Cc4c[nH]cn4)NC(=O)[C@@H](N)CC(=O)O)C(=O)N[C@@H](C(C)C)C(=O)N[C@@H](CO)C(=O)N[C@@H](CO)C(=O)NCC(=O)NCC(=O)N[C@@H](CCC(N)=O)C(=O)N[C@@H](CSSC[C@H](NC(=O)[C@H]([C@@H](C)O)NC(=O)CNC(=O)[C@H](CCC(N)=O)NC1=O)C(=O)N[C@@H](Cc1ccc(O)cc1)C(=O)N[C@@H](CCCNC(=N)N)C(=O)NCC(=O)N[C@@H](CCCCN)C(=O)N[C@@H](C)C(=O)N[C@@H](CCCCN)C(=O)N3)C(=O)N[C@@H](CC(C)C)C(=O)N[C@@H](Cc1ccc(O)cc1)C(=O)N[C@@H](CO)C(=O)N[C@@H](C)C(=O)N2 [HBD-1] (H-DHYNCVSSGGQCLYSACPIFTKIQGTCYRGKAKCCK-OH; disulfide 5-34, 12-27, 17-35 (inferred); N-terminus and C-terminus assumed)
[2]
  Killing of the non-encapsulated Sterne strain: could not
[1]
  % of 0 μg/ml Control, Mean: 59.1%
[1]; 20 μg/ml
  killing: 41%

## Melittin
[1]
  Concentrations at which bactericidal activity (significant killing) was observed: 0.1 to 100 µg/mL
